{"source": "BindingDB's records for PubMed 3012067", "about": "(Johns Hopkins University, 1986)", "note": "Where “and” joins values, the source holds several entries; their conditions need not be identical. Identical values can stand only once.", "data": [{"target": "Voltage-dependent L-type calcium channel subunit alpha-1C (Rattus norvegicus, UniProt P22002)", "sequence (P22002 whole entry)": "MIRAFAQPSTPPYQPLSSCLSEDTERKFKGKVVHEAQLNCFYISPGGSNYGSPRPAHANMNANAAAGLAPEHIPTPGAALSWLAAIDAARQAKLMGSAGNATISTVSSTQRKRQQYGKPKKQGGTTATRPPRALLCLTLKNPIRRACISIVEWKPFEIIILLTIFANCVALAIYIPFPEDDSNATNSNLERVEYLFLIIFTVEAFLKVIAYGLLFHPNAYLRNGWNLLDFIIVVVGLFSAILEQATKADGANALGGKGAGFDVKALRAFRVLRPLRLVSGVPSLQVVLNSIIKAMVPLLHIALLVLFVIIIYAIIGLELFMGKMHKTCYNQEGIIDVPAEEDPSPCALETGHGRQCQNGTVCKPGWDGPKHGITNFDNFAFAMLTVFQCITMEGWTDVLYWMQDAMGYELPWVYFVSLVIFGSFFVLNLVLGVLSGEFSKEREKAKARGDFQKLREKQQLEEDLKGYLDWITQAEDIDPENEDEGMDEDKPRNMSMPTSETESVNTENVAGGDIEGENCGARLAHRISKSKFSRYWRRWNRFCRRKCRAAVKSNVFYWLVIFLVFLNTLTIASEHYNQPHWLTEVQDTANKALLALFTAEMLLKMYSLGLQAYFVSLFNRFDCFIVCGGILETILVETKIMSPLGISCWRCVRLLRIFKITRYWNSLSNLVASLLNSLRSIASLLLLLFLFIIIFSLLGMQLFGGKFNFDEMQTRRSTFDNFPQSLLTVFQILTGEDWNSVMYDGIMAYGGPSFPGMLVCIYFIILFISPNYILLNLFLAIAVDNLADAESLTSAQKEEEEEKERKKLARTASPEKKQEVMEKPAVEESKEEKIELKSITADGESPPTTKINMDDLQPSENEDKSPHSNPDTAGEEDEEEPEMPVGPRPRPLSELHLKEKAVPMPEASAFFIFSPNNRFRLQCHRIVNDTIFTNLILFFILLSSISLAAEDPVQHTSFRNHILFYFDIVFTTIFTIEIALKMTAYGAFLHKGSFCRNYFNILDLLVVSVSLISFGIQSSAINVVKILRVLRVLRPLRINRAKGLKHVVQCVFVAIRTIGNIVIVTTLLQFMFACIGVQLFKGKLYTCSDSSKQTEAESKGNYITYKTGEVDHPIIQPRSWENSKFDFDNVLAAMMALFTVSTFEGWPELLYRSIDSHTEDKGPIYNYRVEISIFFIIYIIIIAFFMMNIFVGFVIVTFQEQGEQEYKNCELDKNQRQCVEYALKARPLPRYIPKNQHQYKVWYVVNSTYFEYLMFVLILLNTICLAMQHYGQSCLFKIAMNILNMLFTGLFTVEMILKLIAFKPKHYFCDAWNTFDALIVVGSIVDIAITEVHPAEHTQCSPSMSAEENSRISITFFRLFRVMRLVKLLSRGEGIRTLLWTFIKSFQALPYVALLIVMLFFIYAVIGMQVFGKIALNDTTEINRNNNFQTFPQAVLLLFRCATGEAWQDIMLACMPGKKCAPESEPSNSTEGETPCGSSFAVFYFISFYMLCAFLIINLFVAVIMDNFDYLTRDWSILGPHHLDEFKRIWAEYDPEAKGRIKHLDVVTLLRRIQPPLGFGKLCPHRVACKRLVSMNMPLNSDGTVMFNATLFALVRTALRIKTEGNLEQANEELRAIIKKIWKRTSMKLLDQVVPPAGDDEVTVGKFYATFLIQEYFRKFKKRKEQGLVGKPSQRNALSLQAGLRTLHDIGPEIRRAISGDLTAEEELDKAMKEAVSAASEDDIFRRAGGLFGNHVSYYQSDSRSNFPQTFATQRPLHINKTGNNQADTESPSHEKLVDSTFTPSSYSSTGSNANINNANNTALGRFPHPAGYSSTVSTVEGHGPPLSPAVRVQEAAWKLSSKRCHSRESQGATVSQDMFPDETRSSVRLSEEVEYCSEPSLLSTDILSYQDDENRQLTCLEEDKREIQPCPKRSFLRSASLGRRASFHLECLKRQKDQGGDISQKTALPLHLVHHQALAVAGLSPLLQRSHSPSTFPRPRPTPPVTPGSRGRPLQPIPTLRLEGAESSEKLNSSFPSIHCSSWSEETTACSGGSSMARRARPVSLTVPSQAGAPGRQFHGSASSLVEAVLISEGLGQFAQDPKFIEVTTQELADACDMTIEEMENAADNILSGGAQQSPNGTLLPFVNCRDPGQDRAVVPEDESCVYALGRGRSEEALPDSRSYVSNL", "values": [{"smiles": "Cc1cccc(C)c1NC(=O)CN1CCN(CCCC(c2ccc(F)cc2)c2ccc(F)cc2)CC1", "Ki": "305 nM and 188 nM"}, {"smiles": "CN(C)C(=O)C(CCN1CCC(O)(c2ccc(Cl)cc2)CC1)(c1ccccc1)c1ccccc1", "Ki": "205 nM and 127 nM"}, {"smiles": "COc1ccc(CCN(C)CCCC2(c3ccc(OC)c(OC)c3)S(=O)(=O)CCCS2(=O)=O)cc1OC", "Ki": "1440 nM and 416 nM"}, {"smiles": "CC(Cc1ccccc1)NCCC(c1ccccc1)c1ccccc1", "note": "(centres undefined)", "Ki": "384 nM and 320 nM"}, {"smiles": "CC(C)COC[C@H](CN(Cc1ccccc1)c1ccccc1)N1CCCC1", "Ki": "547 nM and 241 nM"}, {"smiles": "COC(=O)C1=C(C)N=C(C)C([N+](=O)[O-])C1c1ccccc1C(F)(F)F", "note": "(centres undefined) [Bay k 8644]", "Ki": "1110 nM"}, {"smiles": "COc1ccc(CCN(C)CCCC(C#N)(c2cc(OC)c(OC)c(OC)c2)C(C)C)cc1OC", "note": "(centres undefined) [GALLOPAMIL]", "Ki": "21.4 nM and 22.5 nM"}, {"smiles": "CCOP(=O)(Cc1ccc(-c2nc3ccccc3s2)cc1)OCC", "note": "[NSC_53421]", "Ki": "1690 nM and 442 nM"}, {"smiles": "CCOC(=O)C1=C(C)N=C(C)C(C(=O)OCC)C1c1ccccc1C(F)(F)F", "note": "(centres undefined) [NSC_168089]", "Ki": "268 nM"}]}]}
